Activity calls are given as the source filed them. No cut-off for these calls is given here.

Holding throughout (assay type): functional
Test [1] has as its system Frankliniella occidentalis. As to the kind of experiment: Thrips luring activity against female Frankliniella occidentalis (western flower thrips) assessed as induction of thrips to walk up odor-laden arm of Y-tube olfactometer by Y-tube olfactometer bioassay.
Test [2] deals with Frankliniella occidentalis. As to the kind of experiment: Thrips luring activity against female Frankliniella occidentalis (western flower thrips) assessed as induction of thrips to walk up odor-laden arm of Y-tube olfactometer at 1 uL by Y-tube olfactometer bioassay.
Test [3] concerns Frankliniella occidentalis. As to the kind of experiment: Thrips luring activity against female Frankliniella occidentalis (western flower thrips) assessed as induction of thrips to walk up odor-laden arm of Y-tube olfactometer at 1 x 10^-3 uL by Y-tube olfactometer bioassay.
Test [4] relates to Frankliniella occidentalis. As to the kind of experiment: Thrips luring activity against female Frankliniella occidentalis (western flower thrips) assessed as induction of thrips to walk up odor-laden arm of Y-tube olfactometer at 1 x 10^-2 uL by Y-tube olfactometer bioassay.
Test [5] concerns Frankliniella occidentalis. As to the kind of experiment: Thrips luring activity against female Frankliniella occidentalis (western flower thrips) assessed as induction of thrips to walk up odor-laden arm of Y-tube olfactometer at 1 x 10^-5 uL by Y-tube olfactometer bioassay.
For test [6], the system named is Frankliniella occidentalis. As to the kind of experiment: Thrips luring activity against female Frankliniella occidentalis (western flower thrips) assessed as induction of thrips to walk up odor-laden arm of Y-tube olfactometer at 5 x 10^-1 uL by Y-tube olfactometer bioassay.
Test [7] concerns Frankliniella occidentalis. As to the kind of experiment: Thrips luring activity against female Frankliniella occidentalis (western flower thrips) assessed as trapping of thrips using compound treated yellow sticky traps relative to untreated control under commercial greenhouse.
The subject of a further test is Thrips obscuratus. As to the kind of experiment: Thrips luring activity against female New Zealand Thrips obscuratus (flower thrips) assessed as induction of thrips to walk up odor-laden arm of Y-tube olfactometer by Y-tube olfactometer bioassay.
Test [8] has as its system Frankliniella occidentalis. As to the kind of experiment: Thrips luring activity against female Frankliniella occidentalis (western flower thrips) assessed as induction of thrips to walk up odor-laden arm of Y-tube olfactometer at 1 x 10^-1 uL by Y-tube olfactometer bioassay.
The test system of test [9] is Frankliniella occidentalis. As to the kind of experiment: Thrips luring activity against female Frankliniella occidentalis (western flower thrips) assessed as induction of thrips to walk up odor-laden arm of Y-tube olfactometer at 5 x 10^-4 uL by Y-tube olfactometer bioassay.
Test [10] deals with Frankliniella occidentalis. As to the kind of experiment: Thrips luring activity against female Frankliniella occidentalis (western flower thrips) assessed as induction of thrips to walk up odor-laden arm of Y-tube olfactometer at 5 x 10^-3 uL by Y-tube olfactometer bioassay.

As to `CCCCC(=O)OC1CC2CCC1(C)C2(C)C` (centres undefined), the outcome in test [1] was Active.
As to `CCOC(=O)c1ccnc(Cl)c1`, in test [1], the outcome was Active.
In the case of `CCCC(O)c1ccncc1` (centres undefined) [1-(4-pyridyl)-1-butanol], the Activity in [2] is given as 47%.
In the case of `OCCc1ccncc1` [4-(2-HYDROXYETHYL)PYRIDINE], the Activity in [3] worked out at 48%; in [4], 59%; in test [2] it was 79%.
Regarding `O=Cc1ccncc1` [4-FORMYLPYRIDINE], the result in [5] was Active. Besides, the Activity in test [4] is given as 15%.
With `COc1ccc(C=O)cc1` [ANISALDEHYDE], the Activity in [5] is recorded as 52%.
Take `CC(C)N(C(=O)c1ccncc1)C(C)C` [DI-ISOPROPYL ISONICOTINAMIDE]: the Activity in [6] was determined as 81%.
Regarding `CCOC(=O)c1ccncc1` [ETHYL ISONICOTINATE], the MAD in [1] was 1 ×10⁻⁴ microL; in the test with Thrips obscuratus it was 1 ×10⁻³ microL. Besides, in [7], the “fold change (FC)” value is 14.
Consider `CCOC(=O)C1CCNCC1` [ETHYL ISONIPECOTATE], for which the Activity in test [4] worked out at 49%; in test [2] it was 63%.
On to `CCOC(=O)c1cccnc1` [ETHYL NICOTINATE], for which, in the test with Thrips obscuratus, the MAD came out at 1 ×10⁻⁶ microL.
As for `CC(C)=CCOC(=O)c1ccncc1` [ISO-PENTENYL ISONICOTINATE], the Activity in [2] was found to be 49%.
As for `N#Cc1ccncc1` [ISONICOTINONITRILE], the Activity in [6] came to 39%.
As for `CC(C)OC(=O)c1ccncc1` [ISOPROPYL ISONICOTINATE], the MAD in test [1] came to 1 ×10⁻² microL.
Consider `CC(=O)c1ccncc1` [METHYL 4-PYRIDYLKETONE], for which, in test [7], the “fold change (FC)” value stood at 4.5.
Consider `COC(=O)c1ccncc1` [METHYL ISONICOTINATE], for which the MAD in [1] is reported as 1 ×10⁻⁶ microL. Also, the “fold change (FC)” value in test [7] turned out to be 14.
On to `CCCOC(=O)c1ccncc1` [N-PROPYL ISONICOTINATE], for which the MAD in test [1] came out at 1 ×10⁻³ microL.
For `CCCC(=O)c1ccncc1` [PROPYL 4-PYRIDYL KETONE], the Activity in [8] is listed as 47%; in test [2], 55%.
As for `OCc1ccncc1` [PYRIDINE 4-METHANOL], the Activity in test [2] turned out to be 52%.
For `c1cc(C2OCCO2)ccn1` [PYRIDINE, 4-(1,3-DIOXALAN-2-YL)], the Activity came to 48% in test [9], 61% in [6] and 63% in [10].

The values above are taken from ChEMBL document CHEMBL3045562, “4-Pyridyl carbonyl compounds as thrips lures: effectiveness for Western flower thrips in y-tube bioassays” (2008).
